In ChEMBL document CHEMBL5113512, “β-Nitrostyrene derivatives as broad range potential antifungal agents targeting fungal cell wall” (2022):
Converted amounts (≈) assume the structure as drawn. The source made the active and inactive calls. The calls are words filed in the database; no cut-off is given here.

Assays:
Candida parapsilosis [1] = assay: Synergistic antifungal activity against Candida parapsilosis ATCC 90018 assessed as inhibition of fungal growth incubated for 48 hrs in presence of Calcoflour White by checker board assay; format: functional; conditions: Lodderomyces parapsilosis
Candida parapsilosis [2] = assay: Synergistic antifungal activity against Candida parapsilosis ATCC 90018 assessed as fractional inhibitory concentration index incubated for 48 hrs in presence of SDS by checker board assay; format: functional
Candida albicans [3] = assay: Synergistic antifungal activity against wild type Candida albicans SN152 assessed as inhibition of fungal growth incubated for 48 hrs in presence of Amphotericin B by checker board assay; format: functional
Candida albicans [4] = assay: Antifungal activity against Candida albicans ATCC 24433 overexpressing transporter protein GU4 assessed as inhibition of fungal growth by broth microdilution method; format: functional
[Candida] auris [5] = Synergistic antifungal activity against Candida auris CBS10913 assessed as inhibition of fungal growth incubated for 48 hrs in presence of Congo red by checker board assay; format: functional; conditions: Candidozyma auris
[Candida] auris [6] = Antifungal activity against Candida auris 105 assessed as inhibition of fungal growth by broth microdilution method; format: functional; conditions: Candidozyma auris
Candida albicans [7] = assay: Synergistic antifungal activity against Candida albicans SN152 harboring CAS5 mutant assessed as fractional inhibitory concentration index incubated for 48 hrs in presence of Amphotericin B by checker board assay; format: functional
Cell membrane [8] = assay: Disruption of membrane integrity in Candida albicans ATCC 24433 assessed as cell deformation measured after 30 mins by SEM analysis; format: subcellular
Candida [9] = assay: Upregulation of CPA1 gene expression in Candida cells; format: functional, cell-based
Candida [10] = assay: Downregulation of VTC3 gene expression in Candida cells; format: functional, cell-based
Candida [11] = assay: Downregulation of PGA57 gene expression in Candida cells; format: functional, cell-based
[Candida] auris [12] = Induction of ROS generation in Candida auris CBS10913 at sub-inhibitory concentration incubated for 1 hr by DCFDA staining-based flow cytometric analysis; format: functional, organism-based; conditions: Candidozyma auris
Candida [13] = assay: Downregulation of STT4 gene expression in Candida cells; format: functional, cell-based
Candida [14] = assay: Downregulation of CAS5 gene expression in Candida cells; format: functional, cell-based
[Candida] auris [15] = Synergistic antifungal activity against Candida auris CBS10913 assessed as Congo red MIC incubated for 48 hrs by checker board assay; format: functional; conditions: Candidozyma auris
Candida albicans [16] = assay: Inhibition of drug efflux in Candida albicans ATCC 24433 overexpressing ADCDR1-GFP assessed as reduction in rhodamine 6g efflux preincubated for 45 mins followed by substrate addition and measured after 30 mins; format: functional; conditions: dose 0.1-100 µg/ml, time 75.0 min, DDE = dose-dependent effect
Cell membrane [17] = assay: Disruption of membrane integrity in Candida albicans ATCC 24433 assessed as cell shrinkage and lysis by measuring leakage of intracellular material measured after 6 hrs by SEM analysis; format: subcellular
Candida parapsilosis [18] = assay: Synergistic antifungal activity against Candida parapsilosis ATCC 90018 assessed as SDS MIC incubated for 48 hrs by checker board assay; format: functional; conditions: Lodderomyces parapsilosis
[Candida] auris [19] = Synergistic antifungal activity against Candida auris CBS10913 assessed as fractional inhibitory concentration index incubated for 48 hrs in presence of SDS by checker board assay; format: functional, Candidozyma auris
Candida parapsilosis [20] = assay: Synergistic antifungal activity against Candida parapsilosis ATCC 90018 assessed as fractional inhibitory concentration index incubated for 48 hrs in presence of Congo red by checker board assay; format: functional
[Candida] auris [21] = Synergistic antifungal activity against Candida auris CBS10913 assessed as SDS MIC incubated for 48 hrs by checker board assay; format: functional; conditions: Candidozyma auris
Candida albicans [22] = assay: Synergistic antifungal activity against Candida albicans SN152 harboring CAS5 mutant assessed as fractional inhibitory concentration index incubated for 48 hrs in presence of fluconazole by checker board assay; format: functional
Candida albicans [23] = assay: Synergistic antifungal activity against Candida albicans ATCC 24433 assessed as inhibition of fungal growth incubated for 48 hrs in presence of Calcoflour White by checker board assay; format: functional
Candida [24] = assay: Downregulation of PGA10 gene expression in Candida cells; format: functional, cell-based
Candida parapsilosis [25] = assay: Synergistic antifungal activity against Candida parapsilosis ATCC 90018 assessed as inhibition of fungal growth incubated for 48 hrs in presence of Congo red by checker board assay; format: functional; conditions: Lodderomyces parapsilosis
Candida [26] = assay: Upregulation of LSC2 gene expression in Candida cells; format: functional, cell-based
Candida [27] = assay: Upregulation of ARG5 gene expression in Candida cells; format: functional, cell-based
Candida parapsilosis [28] = assay: Synergistic antifungal activity against Candida parapsilosis ATCC 90018 assessed as inhibition of fungal growth incubated for 48 hrs in presence of SDS by checker board assay; format: functional; conditions: Lodderomyces parapsilosis
Candida albicans [29] = assay: Synergistic antifungal activity against wild type Candida albicans SN152 assessed as fractional inhibitory concentration index incubated for 48 hrs in presence of fluconazole by checker board assay; format: functional
Nakaseomyces glabratus = assay: Antifungal activity against Candida glabrata ATCC 2001 assessed as inhibition of fungal growth by broth microdilution method; format: functional
Candida albicans [30] = assay: Induction of ROS generation in Candida albicans ATCC 24433 at sub-inhibitory concentration incubated for 1 hr by DCFDA staining-based flow cytometric analysis; format: functional, organism-based
Candida [31] = assay: Downregulation of CPH1 gene expression in Candida cells; format: functional, cell-based
Candida [32] = assay: Upregulation of HYM1 gene expression in Candida cells; format: functional, cell-based
Candida albicans [33] = assay: Antifungal activity against Candida albicans ATCC 24433 overexpressing transporter protein F5 assessed as inhibition of fungal growth by broth microdilution method; format: functional
Candida [34] = assay: Upregulation of ARG2 gene expression in Candida cells; format: functional, cell-based
Candida [35] = assay: Downregulation of PGA13 gene expression in Candida cells; format: functional, cell-based
Candida albicans [36] = assay: Synergistic antifungal activity against Candida albicans ATCC 24433 assessed as fractional inhibitory concentration index incubated for 48 hrs in presence of Congo red by checker board assay; format: functional
Candida albicans [37] = assay: Synergistic antifungal activity against Candida albicans SN152 harboring CAS5 mutant assessed as Amphotericin B MIC incubated for 48 hrs by checker board assay; format: functional
Candida [38] = assay: Downregulation of CCT2 gene expression in Candida cells; format: functional, cell-based
Candidozyma auris = assay: Upregulation of CaPHO15 gene expression in Candida auris CBS10913 assessed as increase in glycerol content at sub-inhibitory concentration incubated for 2 hrs; format: functional
Cell membrane [39] = assay: Disruption of membrane integrity in Candida auris CBS10913 assessed as cell surface perturbations measured after 3 hrs by SEM analysis; format: subcellular; conditions: Candidozyma auris
Candida [40] = assay: Downregulation of CCT3 gene expression in Candida cells; format: functional, cell-based
Candida albicans [41] = assay: Synergistic antifungal activity against Candida albicans ATCC 24433 overexpressing ADPDR5-G assessed as fractional inhibitory concentration index incubated for 48 hrs in presence of caspofungin by checker board assay; format: functional
Candida albicans [42] = assay: Antifungal activity against Candida albicans ATCC 24433 overexpressing ADPDR5-GFP assessed as inhibition of fungal growth by broth microdilution method; format: functional
Candida [43] = assay: Downregulation of TCP1 gene expression in Candida cells; format: functional, cell-based
Candida albicans [44] = assay: Inhibition of drug efflux in Candida albicans ATCC 24433 overexpressing AD(1-8)u- assessed as […] in nile red efflux incubated for 30 mins by flow cytometry; format: functional
Candida [45] = assay: Downregulation of VPS34 gene expression in Candida cells; format: functional, cell-based
Candida albicans [46] = assay: Synergistic antifungal activity against Candida albicans SN152 harboring CAS5 mutant assessed as inhibition of fungal growth incubated for 48 hrs in presence of fluconazole by checker board assay; format: functional

## O=[N+]([O-])/C=C/c1ccc(O)cc1
Candida parapsilosis [1]
  MIC: 0.0078 µg/mL
Candida parapsilosis [2]
  fractional inhibitory concentration index (FICI): 0.375
Candida albicans [3]
  MIC: 0.0625 µg/mL
Candida albicans [4]
  MIC80: 4 µg/mL (≈ 24.2 µM)
[Candida] auris [5]
  MIC: 0.125 µg/mL
[Candida] auris [6]
  MIC80: 2 µg/mL (≈ 12.1 µM)
Candida albicans [7]
  fractional inhibitory concentration index (FICI): 0.515
Cell membrane [8]
  Activity: Active
Candida [9]
  Activity: Active
Candida [10]
  Activity: Active
Candida [11]
  Activity: Active
[Candida] auris [12]
  Activity: Active
Candida [13]
  Activity: Active
Candida [14]
  Activity: Active
[Candida] auris [15]
  MIC: 100 µg/mL
Candida albicans [16]
  inhibition: Dde
Cell membrane [17]
  Activity: Active
Candida parapsilosis [18]
  MIC: 25 µg/mL
[Candida] auris [19]
  fractional inhibitory concentration index (FICI): 0.5
Candida parapsilosis [20]
  fractional inhibitory concentration index (FICI): 0.25
[Candida] auris [21]
  MIC: 60 µg/mL
Candida albicans [22]
  fractional inhibitory concentration index (FICI): 0.126
Candida albicans [23]
  MIC: 0.0078 µg/mL
Candida [24]
  Activity: Active
Candida parapsilosis [25]
  MIC: 0.0312 µg/mL
Candida [26]
  Activity: Active
Candida [27]
  Activity: Active
Candida parapsilosis [28]
  MIC: 1 µg/mL
Candida albicans [29]
  fractional inhibitory concentration index (FICI): 0.25
Nakaseomyces glabratus
  MIC80: 8 µg/mL (≈ 48.4 µM)
Candida albicans [30]
  Activity: Active
Candida [31]
  Activity: Active
Candida [32]
  Activity: Active
Candida albicans [33]
  MIC80: 2 µg/mL (≈ 12.1 µM)
Candida [34]
  Activity: Active
Candida [35]
  Activity: Active
Candida albicans [36]
  fractional inhibitory concentration index (FICI): 0.375
Candida albicans [37]
  MIC: 0.25 µg/mL
Candida [38]
  Activity: Active
Candidozyma auris
  Activity: Active
Cell membrane [39]
  Activity: Active
Candida [40]
  Activity: Active
Candida albicans [41]
  fractional inhibitory concentration index (FICI): <0.5
Candida albicans [42]
  MIC80: 4 µg/mL (≈ 24.2 µM)
Candida [43]
  Activity: Active
Candida albicans [44]
  inhibition: Active
Candida [45]
  Activity: Active
Candida albicans [46]
  MIC: 0.001 µg/mL
